Laboratory results published in patent US10688096B2, “Methods for treatment of sleep-related breathing disorders” (The University of Chicago, priority 2010, dated 2020).

What was measured:
[1] = tested on: H2S generation in carotid bodies; assay: Measurement of H2S levels in carotid body homogenates, rats; format: biochemical
Protocol: (§1) H2S levels in the carotid body were assayed as follows. Briefly, carotid bodies were pooled (4 carotid bodies per experiment in rats; 6 carotid bodies per experiment in mice) and tissue homogenates were prepared in 100 mM potassium phosphate buffer, pH 7.4. The enzyme reaction was carried out in sealed tubes flushed with either N2 or different levels of O2—N2 gas mixtures. The PO2 of the reaction medium was determined by blood gas analyzer (ABL5). The assay mixture in a total volume of 500 μl contains (in final concentration): L-cysteine, (800 μM); pyridoxal 5′-phosphate, (80 μM); potassium phosphate buffer, pH 7.4, (100 mM); and tissue homogenate (2 μg protein). The reaction mixture was incubated at 37° C. for 1 h and at the end of the reaction, alkaline zinc acetate (1% w/v; 250 up and trichloroacetic acid (10% v/v) was added sequentially to trap H2S generated and to stop the reaction, respectively. The zinc sulfide formed was reacted sequentially with acidic N,N-dimethyl-p-phenylenediamine sulfate (20 μM) and ferric chloride (30 μM) and the absorbance was measured at 670 nm using a micro-plate reader. A standard curve relating the concentration of Na2S and absorbance was used to calculate H2S concentration and expressed as nanomoles of H2S formed per hour per milligram protein.
(§2) Rats and mice were treated with DL-propargylglycine (Sigma; 200 mg/kg) or Cr(III) Mesoporphyrin IX chloride (CrM459, Frontier Scientific, Logan, Utah; 1 mg/kg) intraperitoneally 2-3 h before acute experiments on anesthetized animals. NaHS (Sigma chemicals, MO) was given acutely to the ex vivo carotid body preparation. In the in vitro assays for H2S measurements, known concentrations of HO-2 inhibitor and CO donor (tricarbonyldichlororuthenium, [Ru(CO)3Cl2]2, Sigma, USA) were added to cell lysates. All solutions with drugs were prepared fresh during the experiments.

[2] = tested on: carotid body; assay: Carotid body sensory activity ex vivo (carotid sinus nerve single unit discharge), rats
Protocol: (§3) Sensory activity from carotid bodies ex vivo was recorded as previously described (Peng, Y. J., et al., PNAS, 2003, 100, 10073-78; Peng Y. J., et. al., J. Physiol., 2006, 577, 705-716). Briefly, carotid bodies along with the sinus nerves were harvested from anaesthetized mice or rats, placed in a recording chamber (volume, 250 μl) and superfused with warm physiological saline (35° C.) at a rate of 2.5 ml/min having the following composition (mM): NaCl (140), KCl (5.4), CaCl2 (2.5), MgCl2 (0.5), HEPES (5.5), D-glucose (11), sucrose (5), and the solution was bubbled with 100% O2 and pH was adjusted to 7.35. Carotid bodies were challenged with graded hypoxia by switching the perfusate equilibrated with gas mixtures containing varying levels of O2. For assessing the carotid body response to CO2, bicarbonate-buffered medium equilibrated with either […] (baseline) or 90% 02+10% CO2 balance N2. Clearly identifiable action potentials (2-3 active units) were recorded from one of the nerve bundles with a suction electrode and stored in a computer via a data acquisition system (PowerLab/8P, AD Instruments Pty Ltd, Australia). ‘Single’ units were selected based on the height and duration of the individual action potentials using a spike discrimination program (Spike Histogram Program, Power Laboratory, AD Instruments). In each carotid body, at least two chemoreceptor units were analyzed. The PO2, and PCO2 of the superfusion medium were determined by a blood gas analyzer (ABL 5, Radiometer, Copenhagen, Denmark).
as §2
(§4) In unsedated mice RR (breaths/min), VT (μl), minute ventilation [VE (ml/min)=RR×VT], O2 consumption (VO2, ml/min), and CO2 production (VCO2 ml/min) were analyzed. Respiratory variables (RR and VT) were averaged for at least 20 consecutive breaths over 5 min of inspired O2 and CO2 challenge. VT, VE, VO2 and VCO2 were normalized to body weight. Carotid body sensory activity (discharge from ‘single’ units) was averaged during 3 min of baseline and during the 3 min of gas challenge and expressed as impulses per second unless otherwise stated. The number of secretory events and the amount of catecholamine secreted per secretory event were analyzed in each experiment and the data were expressed as total catecholamines secreted. Average data are presented as mean±S.E.M. Statistical significance was assessed by either ANOVA or two-way ANOVA with repeated measures followed by Tukey's test. p values <0.05 were considered significant.

[3] = tested on: carotid body; assay: Carotid body sensory activity ex vivo (carotid sinus nerve single unit discharge), mice
Protocol: as §3, §2, §4

[4] = tested on: H2S generation in carotid bodies; assay: Measurement of H2S levels in carotid body homogenates, mice; format: biochemical; details: 1 μM, normoxia, FIG. 5A
Protocol: as §1, with “protein. […]” for “protein.”

[5] = tested on: neonatal adrenal medullary chromaffin cells (AMC); assay: Catecholamine secretion from neonatal adrenal medullary chromaffin cells by amperometry; format: cell-based, rats; details: 40 mM K+, AMC from PAG treated rat pups; FIG. 6B
Protocol: The protocols for preparation of chromaffin cells and measurements of catecholamine secretion by amperometry are as follows. Briefly, adrenal glands were harvested from anesthetized mice and rats aged P10. Chromaffin cells were enzymatically dissociated, plated on collagen (type VII; Sigma) coated coverslips, and maintained at 37° C. in a 5% CO2 incubator for 12-24 h. The growth medium consisted of F-12 K medium (Invitrogen) supplemented with 10% horse serum, 5% fetal bovine serum, and 1% Penicillin/streptomycin/glutamine cocktail (Invitrogen). Catecholamine secretion from chromaffin cells was monitored by amperometry using carbon fiber electrodes. […] Normoxic solutions were equilibrated with room air (PO2˜146 mmHg), and hypoxic solutions were equilibrated with appropriate gas mixtures that yielded medium PO2, of ˜30-40 mmHg as measured by blood gas analyzer. […]
In unsedated mice RR (breaths/min), VT (μl), minute ventilation [VE (ml/min)=RR×VT], O2 consumption (VO2, ml/min), and CO2 production (VCO2 ml/min) were analyzed. […] Carotid body sensory activity (discharge from ‘single’ units) was averaged during 3 min of baseline and during the 3 min of gas challenge and expressed as impulses per second unless otherwise stated. […]

[6] = tested on: H2S generation in adrenal glands; assay: H2S generation in adrenal glands of rat pups; format: biochemical, rats; details: PAG treated rat pups vs vehicle; data not shown
[7] = Respiration (rate and depth) in spontaneously hypertensive and Sprague-Dawley rats, whole body polysomnography; format: in vivo; details: FIG. 14
Protocol: FIG. 14. […] Spontaneously hypertensive rats (SHR) were treated with the CSE inhibitor propargylglycine. Their respiration was measured using whole body polysomnography. The control animals were Sprague-Dawley rats.

[8] = systemic administration (1 mg/kg i.p.), CSE+/+ mice, FIG. 5B-D

Question: For `O=[C]=[Ru]([Cl])([Cl])(=[C]=O)=[C]=O` [[Ru(CO)3Cl2]2, tricarbonyldichlororuthenium], which “H2S generation in carotid bodies under hypoxia” value ([1]; rat carotid bodies, hypoxia PO2=38 mmHg, 1 and 10 μM, FIG. 13B) is on record?
Answer: Its value is “inhibited H2S generation by hypoxia nearly to the levels seen under normoxia”.

Question: Which “prevention of carotid body response to NaHS” value ([2]; 100 μM glibenclamide, 100 μM NaHS, rats, FIG. 12) does the source give for `COc1ccc(Cl)cc1C(=O)NCCc1ccc(S(=O)(=O)NC(=O)NC2CCCCC2)cc1` [glibenclamide] here?
Answer: Its value is “failed to prevent”.

Question: And the “prevention of carotid body response to hypoxia” value ([2]; 100 μM glibenclamide, hypoxia PO2=42 mmHg, rats, FIG. 12)?
Answer: The value was “failed to prevent”.

Question: With `CCC1=C(C)c2cc3[n-]c(cc4nc(cc5[n-]c(cc1n2)c(C)c5CCC(=O)O)C(CCC(=O)O)=C4C)c(C)c3CC.[Cl][Cr+2]` [Cr (III) MP, Cr (III) mesoporphyrin IX chloride] as the compound, how does the “baseline carotid body activity” value [3, 8] read?
Answer: Its value is “significantly increased”.

Question: What about the “carotid body hypoxic response” value [3, 8] of the same compound?
Answer: Its value is “potentiated”.

Question: What about the “increase of H2S generation in carotid bodies” value ([4]; CSE+/+ mice) of the same compound?
Answer: Its value is 6 fold.

Question: And the “increase of H2S generation in carotid bodies” value ([4]; CSE−/− (mutant) mice)?
Answer: The value was “abolished”.

Question: And the “H2S generation in carotid bodies under normoxia” value ([1]; rat carotid bodies, 1 and 100 μM, FIG. 13A)?
Answer: Its value is “enhanced”.

Question: With `[Na+].[SH-]` [NaHS] as the compound, how does the “carotid body sensory activity” value ([3]; exogenous NaHS 100 μM, CSE+/+ and CSE−/− mice, FIG. 11) read?
Answer: The value was “augmented”.

Question: And the “carotid body response in Ca2+-free and EGTA containing medium” value ([2]; 100 μM NaHS, rats, FIG. 4B)?
Answer: The value was “abolished”.

Question: What about the “onset of carotid body response after application” value ([2]; NaHS, activity returned to baseline after termination, FIG. 4A) of the same compound?
Answer: Its value is “within seconds”.

Question: What about the “carotid body sensory activity” value ([2]; exogenous NaHS, rats, FIG. 4A) of the same compound?
Answer: Its value is “augmented”.

Question: With `C#CCC(N)C(=O)O` (racemic) [PAG, DL-propargylglycine] as the compound, how does the “carotid body sensory response to hypoxia” value ([3]; CSE+/+ mice treated systemically with PAG (200 mg/kg i.p. 2-3 h before), FIG. 9) read?
Answer: Its value is “loss of the hypoxic response”.

Question: What about the “carotid body hypoxic response, acute application” value ([3]; acute application of PAG to the carotid body) of the same compound?
Answer: Its value is “ineffective in preventing the hypoxic response”.

Question: What about the “carotid body response to CO2” value ([2]; PAG treated rats (same rats tested for hypoxia), FIG. 3C) of the same compound?
Answer: Its value is “significantly augmented”.

Question: What about the “carotid body sensory response to hypoxia” value ([2]; PAG treated rats vs vehicle, FIG. 3B) of the same compound?
Answer: Its value is “significantly attenuated”.

Question: And the “basal H2S levels in carotid body” value ([1]; PAG treated rats (vehicle=266±61))?
Answer: Its value is 147±50 nmol/h/mg protein.

Question: And the “reduction of basal H2S levels in carotid body” value ([1]; PAG treated rats vs vehicle, p<0.05)?
Answer: The value was 55%.

Question: And the “hypoxia-evoked H2S generation in carotid bodies” value ([1]; PAG treated rats, graded hypoxia, FIG. 3A)?
Answer: Its value is “nearly absent”.

Question: What about the “K+-evoked catecholamine secretion” value [5] of the same compound?
Answer: Its value is “unaffected”.

Question: And the “hypoxia-induced increase of H2S generation in adrenal glands” value [6]?
Answer: Its value is “greatly reduced or absent”.

Question: What about the respiration frequency ([7]; control Sprague-Dawley rats treated with PAG) of the same compound?
Answer: Its respiration frequency is “reducing respiration frequency very slightly”.

Question: What about the breathing pattern ([7]; spontaneously hypertensive rats (SHR) treated with PAG) of the same compound?
Answer: The breathing pattern was “normalized”.

Question: For `N[C@@H](CS)C(=O)O` [L-cysteine], which “effect on carotid body hypoxic response” value ([2]; 100 μM L-cysteine, isolated rat carotid body, FIG. 10) is on record?
Answer: The value was “no significant effect”.
